For 1 compound, Ki results are on record in patent US9187411B2, “Leukotriene B4 antagonist compound” (Eli Lilly and Company, priority 2012, dated 2015).

A word on the Ki: it is a measure of affinity in units of concentration, obtained from inhibition or displacement.

For this assay, the target named is T1, PPARγ (Homo sapiens, UniProt P37231).
T1 construct: made in house; host or cells: Sf9 insect cells (baculovirus), crude cell lysate
T1 sequence (P37231 1-505): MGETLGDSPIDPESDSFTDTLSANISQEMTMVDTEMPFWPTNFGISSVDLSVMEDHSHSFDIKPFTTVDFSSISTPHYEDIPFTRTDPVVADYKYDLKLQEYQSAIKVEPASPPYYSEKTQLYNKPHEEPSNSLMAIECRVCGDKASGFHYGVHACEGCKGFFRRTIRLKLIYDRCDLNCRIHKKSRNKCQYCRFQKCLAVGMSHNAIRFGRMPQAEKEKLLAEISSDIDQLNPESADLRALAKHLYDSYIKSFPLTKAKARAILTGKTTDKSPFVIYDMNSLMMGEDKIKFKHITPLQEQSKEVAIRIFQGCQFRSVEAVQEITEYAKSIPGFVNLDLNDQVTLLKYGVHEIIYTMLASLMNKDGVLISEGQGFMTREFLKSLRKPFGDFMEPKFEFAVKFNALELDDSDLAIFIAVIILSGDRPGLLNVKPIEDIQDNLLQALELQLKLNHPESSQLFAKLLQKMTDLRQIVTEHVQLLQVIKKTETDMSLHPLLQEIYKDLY
T1 sequence (P19793 1-462 partner): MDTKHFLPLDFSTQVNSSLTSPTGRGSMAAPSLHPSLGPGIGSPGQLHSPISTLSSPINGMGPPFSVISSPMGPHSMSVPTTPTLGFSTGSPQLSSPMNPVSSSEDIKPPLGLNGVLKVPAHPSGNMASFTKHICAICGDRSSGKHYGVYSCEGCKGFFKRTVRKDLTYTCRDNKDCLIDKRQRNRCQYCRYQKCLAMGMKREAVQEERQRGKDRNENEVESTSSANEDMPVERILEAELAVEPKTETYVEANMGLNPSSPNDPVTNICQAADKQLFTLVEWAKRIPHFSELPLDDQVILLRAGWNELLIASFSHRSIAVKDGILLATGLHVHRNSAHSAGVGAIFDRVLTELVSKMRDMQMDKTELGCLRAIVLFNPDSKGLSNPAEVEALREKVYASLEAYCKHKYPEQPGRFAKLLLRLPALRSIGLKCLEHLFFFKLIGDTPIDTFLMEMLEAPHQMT
The assay is described as follows: PPAR gamma binding assay (SPA). As to conditions: n=2, read-out: Ki PPAR γ binding. From the text:
The nucleotide sequences encoding full-length PPARα receptor DNA (National Center for Biotechnology Information (NCBI) Reference Sequence NM_005036.4), PPARδ receptor DNA (NCBI Reference Sequence NM_006238.4), PPARγ receptor DNA (NCBI Reference Sequence NM_015869.4) and Retinoid X Receptor (RXR) α DNA (NCBI Reference Sequence NM_002957.4) are synthesized and inserted into pFastBacHTb (Invitrogen) vector in-framed with the N-terminal HIS tag from the vector. […] The protein concentration is determined by Bradford assay using BSA as the standard.
Binding Affinities of Compounds for the PPAR α, δ, γ Receptors are Assessed Using Scintillation Proximity Assay (SPA) Technology.
Biotinylated oligonucleotide(DR2) ^5′[…]^3′ (SEQ ID NO: 1) is used for binding of receptors to Yttrium silicate streptavidin-coated SPA beads (Perkin Elmer). The PPAR α, δ, γ and Retinoid X Receptor (RXR) α receptors (endogenously expressed as heterodimers) are cell lysates from Baculovirus expression systems in Sf9 cells. […] Non-specific binding is determined in the presence of 10000 nM unlabeled GW2331 (Kliewer, S. A. et al Proc. Natl. Acad. Sci. USA (1997), 94: 4318-4323) for the alpha and delta receptors and 2-methyl-2-[4-[3-[propyl[(5-pyridin-2-ylthiophen-2-yl)sulfonyl]amino]-propyl]phenoxy]propanoic (WO 2004/073606) for the gamma receptor. […]

For `CCCc1c(NC(=O)CC(C)(C)C(=O)[O-])cccc1OCCCOc1cc(O)c(-c2ccc(F)cc2)cc1CC.[Na+]` [Example 2, Sodium 4-[[3-[3-[2-ethyl-4-(4-fluorophenyl)-5-hydroxy-phenoxy]propoxy]-2-propyl-phenyl]amino]-2,2-dimethyl-4-oxo-butanoate], the Ki came out at 1380 nM.
